Data set [1] can be described thus: On-set pH of crystallization of aqueous 2,4-D potassium solution with added crystal inhibitor (CI), pH lowered with 0.2 N sulfuric acid. Conditions: 3% ae 2,4-D K salt in water; CI 0.2 wt %. The data set is classed as physicochemical.
Data set [2] in a line: Spray solution compatibility (crystal formation) of 2,4-D and glyphosate salts with 2% AMS and added crystal inhibitor. It counts as physicochemical. Conditions: 2% AMS, 342 ppm hardness water, 24 h room temperature. The source says: Spray solutions were formed from aqueous concentrates of 2,4-D choline (prepared by mixing equimolar amounts of 2,4-D acid and choline hydroxide in water) or 2,4-D DMA and various glyphosate salts (potassium, isopropyl ammonium or dimethyl ammonium) at various concentrations (weight percent acid equivalent basis) of the respective active ingredients with and without added polyethylenimine or polyvinylamine crystal inhibitor (CI).

The record followed here is patent US20120053056A1, “COMPOSITIONS AND METHODS FOR IMPROVING THE COMPATIBILITY OF WATER SOLUBLE HERBICIDE SALTS” (DOW AGROSCIENCES LLC, priority 2010, published 2012).

Take `NCCNCCNCCNCCN` [TEPA, tetraethylenepentamine]: the “On-set pH of Crystallization” value in data set [1] is given as 5.68. Besides, the “Result (crystals observed 24 hours after preparation of tank mixture)” value in data set [2] (2,4-D choline 1.8 wt % ae + WeatherMax 1.8 wt % ae, CI 0.2%) is recorded as 1; in data set [2] (2,4-D choline 1.8 wt % ae + WeatherMax 1.8 wt % ae, CI 0.4%), 0; in data set [2] (2,4-D choline 1.8 wt % ae + WeatherMax (glyphosate potassium) 1.8 wt % ae, CI 0.1%), 3.
